Test results from PubChem BioAssay AID248 (DTP/NCI, 2004).
Several values for one entry are separate records, joined by “and”; a condition that tells them apart may be missing. Equal values may be shown once. Inconclusive results and toxic doses are left out. Cut-off read from the data, not from the text of the source: active = T/C of 150% or more; inactive = T/C below 125%.

Tested on: L1210 leukemia ip in BDF1 mice, survival T/C
Assay: NCI In Vivo Anticancer Drug Screen. Data for tumor model L1210 Leukemia (intraperitoneal) in B6D2F1 (BDF1) mice
Settings: endpoint: mean survival time, higher = longer survival
In short: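 Tumor was transplanted into mice, which were then dosed with test compound or vehicle alone. Survival was recorded for each group, and the treated figure was expressed relative to the control figure.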

[1] = dose: 100.0 mg/kg/injection, schedule: Q01DX001 (ip), vehicle: carboxymethylcellulose (CMC)
[2] = dose: 200.0 mg/kg/injection, schedule: Q01DX001 (ip), vehicle: carboxymethylcellulose (CMC)
[3] = dose: 100.0 mg/kg/injection, schedule: Q04DX003 (ip), vehicle: Klucel (hydroxypropylcellulose) (HPC)
[4] = dose: 200.0 mg/kg/injection, schedule: Q04DX003 (ip), vehicle: Klucel (hydroxypropylcellulose) (HPC)
[5] = dose: 400.0 mg/kg/injection, schedule: Q04DX003 (ip), vehicle: Klucel (hydroxypropylcellulose) (HPC)
[6] = dose: 200.0 mg/kg/injection, schedule: Q01DX009 (ip), vehicle: saline with Tween-80
[7] = dose: 100.0 mg/kg/injection, schedule: Q01DX009 (ip), vehicle: Klucel (hydroxypropylcellulose) (HPC)
[8] = dose: 100.0 mg/kg/injection, schedule: Q01DX001 (ip), vehicle: saline
[9] = dose: 200.0 mg/kg/injection, schedule: Q01DX001 (ip), vehicle: saline
[10] = dose: 400.0 mg/kg/injection, schedule: Q01DX001 (ip), vehicle: saline
[11] = dose: 100.0 mg/kg/injection, schedule: Q04DX002 (ip), vehicle: Klucel (hydroxypropylcellulose) (HPC)
[12] = dose: 200.0 mg/kg/injection, schedule: Q04DX002 (ip), vehicle: Klucel (hydroxypropylcellulose) (HPC)
[13] = dose: 400.0 mg/kg/injection, schedule: Q04DX002 (ip), vehicle: Klucel (hydroxypropylcellulose) (HPC)
[14] = dose: 100.0 mg/kg/injection, schedule: Q04DX003 (ip), vehicle: saline
[15] = dose: 200.0 mg/kg/injection, schedule: Q04DX003 (ip), vehicle: saline
[16] = dose: 400.0 mg/kg/injection, schedule: Q04DX003 (ip), vehicle: saline
[17] = dose: 100.0 mg/kg/injection, schedule: Q01DX001 (ip), vehicle: Klucel (hydroxypropylcellulose) (HPC)
[18] = dose: 200.0 mg/kg/injection, schedule: Q01DX001 (ip), vehicle: Klucel (hydroxypropylcellulose) (HPC)
[19] = dose: 400.0 mg/kg/injection, schedule: Q01DX001 (ip), vehicle: Klucel (hydroxypropylcellulose) (HPC)
[20] = dose: 400.0 mg/kg/injection, schedule: Q01DX001 (ip), vehicle: carboxymethylcellulose (CMC)
[21] = dose: 100.0 mg/kg/injection, schedule: Q01DX009 (ip), vehicle: saline
[22] = dose: 200.0 mg/kg/injection, schedule: Q01DX009 (ip), vehicle: saline
[23] = dose: 400.0 mg/kg/injection, schedule: Q01DX009 (ip), vehicle: saline

Measured: T/C

O=C(CBr)c1ccc(I)cc1
inactive: dose: 3.13 mg/kg/injection, schedule: Q01DX009 (ip), vehicle: saline with Tween-80 92 % of control | dose: 6.25 mg/kg/injection, schedule: Q01DX009 (ip), vehicle: saline with Tween-80 95 % of control | dose: 12.5 mg/kg/injection, schedule: Q01DX009 (ip), vehicle: saline with Tween-80 97 % of control | dose: 25.0 mg/kg/injection, schedule: Q01DX009 (ip), vehicle: saline with Tween-80 100 % of control | [1] 91 % of control | [2] 101 % of control

COc1ccccc1C(=S)N1CCOCC1
inactive: [3] 91 % of control | [4] 96 % of control | [5] 99 % of control

CC(=O)Nc1ccc(OCCOC(=O)Nc2ccc(C)c([N+](=O)[O-])c2)cc1
inactive: dose: 50.0 mg/kg/injection, schedule: Q01DX009 (ip), vehicle: saline with Tween-80 87 % of control | [6] 87 % of control

CCCCCCCCCCCCCCCCS(=O)CCCCCCCCCCCCCCCC
inactive: dose: 50.0 mg/kg/injection, schedule: Q01DX009 (ip), vehicle: Klucel (hydroxypropylcellulose) (HPC) 88 % of control | [7] 92 % of control

O=C(O)c1ccccc1C(=O)NNC(=O)c1ccccc1C(=O)O
inactive: dose: 100.0 mg/kg/injection, schedule: Q01DX009 (ip), vehicle: saline with Tween-80 97 % of control | dose: 100.0 mg/kg/injection, schedule: Q04DX003 (ip), vehicle: saline with Tween-80 97 % of control | [6] 94 % of control | dose: 200.0 mg/kg/injection, schedule: Q04DX003 (ip), vehicle: saline with Tween-80 108 % of control | dose: 400.0 mg/kg/injection, schedule: Q01DX009 (ip), vehicle: saline with Tween-80 94 % of control | dose: 400.0 mg/kg/injection, schedule: Q04DX003 (ip), vehicle: saline with Tween-80 92 % of control

N#Cc1ccccc1C(=O)O
inactive: [8] 95 % of control | [9] 102 % of control | [10] 96 % of control

CCC/C=C/CC1CC2CC(C1C)C2(C)C (configuration not stated)
inactive: dose: 50.0 mg/kg/injection, schedule: Q01DX009 (ip), vehicle: other 97 % of control | dose: 100.0 mg/kg/injection, schedule: Q01DX009 (ip), vehicle: other 101 % of control | dose: 200.0 mg/kg/injection, schedule: Q01DX009 (ip), vehicle: other 90 % of control

COc1ccc(/C=C/c2ccc3ccccc3n2)cc1
inactive: [11] 111 % of control | [12] 97 % of control | [13] 105 % of control

N#CCCP(=O)(CCC#N)CCC#N
inactive: dose: 50.0 mg/kg/injection, schedule: Q04DX003 (ip), vehicle: saline 98 % of control | [14] 98 % of control | [15] 101 % of control | [16] 101 % of control

O=C(Nc1cccc(O)c1)Nc1ccccc1F
inactive: [17] 102 % of control | [7] 102 % of control and 90 % of control | [11] 97 % of control and 92 % of control | [3] 103 % of control | [18] 104 % of control | dose: 200.0 mg/kg/injection, schedule: Q01DX009 (ip), vehicle: Klucel (hydroxypropylcellulose) (HPC) 96 % of control and 101 % of control | [12] 98 % of control and 99 % of control | [4] 110 % of control | [19] 104 % of control | dose: 400.0 mg/kg/injection, schedule: Q01DX009 (ip), vehicle: Klucel (hydroxypropylcellulose) (HPC) 98 % of control and 101 % of control | [13] 115 % of control and 89 % of control | [5] 98 % of control

CCOC(=O)NN(C(=O)OCC)c1c(N)nc(N)[nH]c1=O
inactive: [17] 92 % of control | [18] 101 % of control | [19] 92 % of control

CCOC(=O)Nc1cc(NC(C)CCCN(CC)CC)nc2nc(-c3ccc(Cl)cc3)cnc12 (configuration not stated)
inactive: dose: 9.5 mg/kg/injection, schedule: Q01DX001 (ip), vehicle: saline 100 % of control | dose: 19.0 mg/kg/injection, schedule: Q01DX001 (ip), vehicle: saline 102 % of control | dose: 38.0 mg/kg/injection, schedule: Q01DX001 (ip), vehicle: saline 89 % of control | dose: 75.0 mg/kg/injection, schedule: Q01DX001 (ip), vehicle: saline 100 % of control

Nc1nc(N)nc(CC(=O)O)n1
inactive: dose: 50.0 mg/kg/injection, schedule: Q01DX001 (ip), vehicle: carboxymethylcellulose (CMC) 95 % of control | [1] 90 % of control | [2] 95 % of control | [20] 93 % of control

Cc1ccc(N)cc1NC(=O)c1ccccc1
inactive: [1] 106 % of control | [2] 94 % of control | [20] 108 % of control

O=C(COc1ccc(F)cc1Cl)OCCOCCO
inactive: [11] 106 % of control | [12] 95 % of control | [13] 106 % of control

CN(C)S(=O)(=O)c1ccc(NC(=O)OC2CCCCCC2)cc1
inactive: [8] 91 % of control | [9] 94 % of control | [10] 91 % of control

Cc1ccc(S(=O)(=O)NC(=O)NC(C)C(=O)O)cc1 (configuration not stated)
inactive: [14] 102 % of control | [15] 97 % of control | [16] 96 % of control

CN1CCC(OC(N)=O)CC1
inactive: [21] 99 % of control | [14] 103 % of control | [22] 104 % of control | [15] 103 % of control | [23] 96 % of control | [16] 101 % of control

CC1(C)N=C(N)N=C(N)N1c1ccc(OCCCNC(=O)Nc2ccc(S(=O)(=O)F)cc2)c(Cl)c1
inactive: dose: 18.75 mg/kg/injection, schedule: Q04DX003 (ip), vehicle: saline with Tween-80 106 % of control | dose: 37.5 mg/kg/injection, schedule: Q04DX003 (ip), vehicle: saline with Tween-80 104 % of control | dose: 50.0 mg/kg/injection, schedule: Q01DX004 (ip), vehicle: saline 111 % of control | dose: 75.0 mg/kg/injection, schedule: Q04DX003 (ip), vehicle: saline with Tween-80 103 % of control | dose: 100.0 mg/kg/injection, schedule: Q01DX004 (ip), vehicle: saline 100 % of control

Nc1nc(-c2ccc(O)cc2)nc2[nH]ncc12
inactive: [17] 91 % of control | [18] 100 % of control | [19] 94 % of control

CC(C)(C)OC(=O)NCC(=O)NNC(=O)OC(C)(C)C
inactive: [21] 92 % of control | dose: 100.0 mg/kg/injection, schedule: Q04DX003 (ip), vehicle: saline sonified 101 % of control | [22] 89 % of control | dose: 200.0 mg/kg/injection, schedule: Q04DX003 (ip), vehicle: saline sonified 97 % of control | [23] 92 % of control | dose: 400.0 mg/kg/injection, schedule: Q04DX003 (ip), vehicle: saline sonified 95 % of control
